From patent US20140309107A1

What was measured:
[1] = system: Alternaria solani; experiment: Alternaria Test (Tomatoes)/Preventive; assay type: in vivo; details: young tomato plants sprayed preventively, evaluated 3 days after inoculation; application rate B19 500 ppm, F206 100 ppm, B19 + F206 500 + 100 ppm (1:0.2); 0% = untreated control, 100% = no disease
From the text: A solution comprising 8.5×10^8 CFU/g (1.34%) of this strain was used.

[2] = system: Botrytis cinerea; experiment: Botrytis cinerea Test (Roses)/Preventive (field trial); details: young rose plants in the field, sprayed twice five days apart, leaves and stems evaluated fifteen days after second application; B9 (RHAPSODY) 2 mL/L, F196 (SCALA) 1.25 mL/L, combination 2 mL/L + 1.25 mL/L
Protocol: The application rate of Bacillus subtilis AQ713 refers to the amount of (1.34%) Bacillus subtilis AQ713 (NRRL Accession No. B-21661) (i.e., spore preparation) contained in a formulation of AQ713.
The rose plants were grown in the field under conditions where disease pressure from Botrytis cinerea was present. Each treatment was applied twice to the plants at intervals five days apart. The efficacy of the treatments in preventing Botrytis infection on the leaves and stems of the plants was evaluated fifteen days after the second application.

Structure (SMILES) | Efficacy in % Found (activity observed) [1] [%] | Efficacy in % Found (activity observed) [2] [%]
C#CCOc1ccc(CCNC(=O)C(OCC#C)c2ccc(Cl)cc2)cc1OC (centres unmarked) [F206 mandipropamid, mandipropamid] | 0 | –
Cc1cc(C)nc(Nc2ccccc2)n1 [F196 pyrimethanil, pyrimethanil] | – | 40
